# Paper PMC5392334, “Discovery and characterization of a novel irreversible EGFR mutants selective and potent kinase inhibitor CHMFL-EGFR-26 with a distinct binding mode” (Oncotarget, 2017)
# Columns and labels:
# NEK9 = biological target: T1, NEK9 (Homo sapiens, UniProt Q8TD19); assay: KinomeScan; type: binding; details: read-out: % control
# T1 construct: purchased DiscoveRx KINOMEscan
# MAP3K15 = biological target: T2, MAP3K15 (Homo sapiens, UniProt Q6ZN16); assay: KinomeScan; type: binding; details: read-out: % control
# T2 construct: purchased DiscoveRx KINOMEscan
# ERK8 = biological target: T3, ERK8 (Homo sapiens, UniProt Q8TD08); assay: KinomeScan; type: binding; details: read-out: % control
# T3 construct: purchased DiscoveRx KINOMEscan
# MLK3 = biological target: T4, MLK3 (Homo sapiens, UniProt Q16584); assay: KinomeScan; type: binding; details: read-out: % control
# T4 construct: purchased DiscoveRx KINOMEscan
# RIPK2 = biological target: T5, RIPK2 (Homo sapiens, UniProt O43353); assay: KinomeScan; type: binding; details: read-out: % control
# T5 construct: purchased DiscoveRx KINOMEscan
# [1] = biological target: T6, RSK1(Kin.Dom.2-C-terminal) (Homo sapiens, UniProt Q15418); assay: KinomeScan; type: binding; details: read-out: % control
# T6 construct: RSK1(Kin.Dom.2-C-terminal); purchased DiscoveRx KINOMEscan
# H1975 (EGFRL858R/T790M) = assay: Anti-proliferation, NSCLC cell lines (CellTiter-Glo); type: cell-based, human
# Description: The human cancer cell lines H1975, HCC827, H2122, CHO, CHL and H1355 were purchased from the American Type Culture Collection (ATCC) (Manassas, VA, USA). PC9 cell line was purchased from the Sigma-Aldrich (St. Louis, MO, USA). A549, H3255 were purchased from Cobioer Biosciences CO., LTD (Nanjing, China). […] A549 and H1355 were cultured in F-12K Nutrient Mixture (kaighn's Modification) (Gibco, USA) with 10% FBS and supplemented with 2% L-glutamine and 1% pen/strep. H3255 was cultured in BEGM media (LONZA, USA) with 10% FBS and supplemented with 2% L-glutamine and 1% pen/strep.
# [2] = biological target: T7, ABL1(T315I)-nonphosphorylated (Homo sapiens, UniProt P00519, T315I); assay: KinomeScan; type: binding; details: read-out: % control
# T7 construct: purchased DiscoveRx KINOMEscan
# SGK = biological target: T8, SGK (Homo sapiens, UniProt O00141); assay: KinomeScan; type: binding; details: read-out: % control
# T8 construct: purchased DiscoveRx KINOMEscan
# [3] = test system: NSCLC cell lines (H1975, HCC827, PC9, H3255; A549, H1355); assay: Cell cycle analysis; type: cell-based, human
# Description: We then examined CHMFL-EGFR-26's effect on cell cycle progression and apoptosis.
# The cells were fixed in 70% cold ethanol and incubated at −20 °C overnight then stained with PI/RNase staining buffer (BD Pharmingen). Flow cytometry was performed using a FACS Calibur (BD), and results were analyzed by ModFit software.
# MYLK4 = biological target: T9, MYLK4 (Homo sapiens, UniProt Q86YV6); assay: KinomeScan; type: binding; details: read-out: % control
# T9 construct: purchased DiscoveRx KINOMEscan
# PFPK5(P.falciparum) = biological target: T10, PFPK5(P.falciparum) (Plasmodium falciparum, UniProt P61075); assay: KinomeScan; type: binding; details: read-out: % control
# T10 construct: purchased DiscoveRx KINOMEscan
# WNK3 = biological target: T11, WNK3 (Homo sapiens, UniProt Q9BYP7); assay: KinomeScan; type: binding; details: read-out: % control
# T11 construct: purchased DiscoveRx KINOMEscan
# NIK = biological target: T12, NIK (Homo sapiens, UniProt Q99558); assay: KinomeScan; type: binding; details: read-out: % control
# T12 construct: purchased DiscoveRx KINOMEscan
# [4] = biological target: T13, RSK3(Kin.Dom.1-N-terminal) (Homo sapiens, UniProt Q15349); assay: KinomeScan; type: binding; details: read-out: % control
# T13 construct: RSK3(Kin.Dom.1-N-terminal); purchased DiscoveRx KINOMEscan
# ICK = biological target: T14, ICK (Homo sapiens, UniProt Q9UPZ9); assay: KinomeScan; type: binding; details: read-out: % control
# T14 construct: purchased DiscoveRx KINOMEscan
# FLT3(D835Y) = biological target: T15, FLT3(D835Y) (Homo sapiens, UniProt P36888, D835Y); assay: KinomeScan; type: binding; details: read-out: % control
# T15 construct: purchased DiscoveRx KINOMEscan
# PYK2 = biological target: T16, PYK2 (Homo sapiens, UniProt Q14289); assay: KinomeScan; type: binding; details: read-out: % control
# T16 construct: purchased DiscoveRx KINOMEscan
# MEK5 = biological target: T17, MEK5 (Homo sapiens, UniProt Q13163); assay: KinomeScan; type: binding; details: read-out: % control
# T17 construct: purchased DiscoveRx KINOMEscan
# STK35 = biological target: T18, STK35 (Homo sapiens, UniProt Q8TDR2); assay: KinomeScan; type: binding; details: read-out: % control
# T18 construct: purchased DiscoveRx KINOMEscan
# FLT3(R834Q) = biological target: T19, FLT3(R834Q) (Homo sapiens, UniProt P36888, R834Q); assay: KinomeScan; type: binding; details: read-out: % control
# T19 construct: purchased DiscoveRx KINOMEscan
# SBK1 = biological target: T20, SBK1 (Homo sapiens, UniProt Q52WX2); assay: KinomeScan; type: binding; details: read-out: % control
# T20 construct: purchased DiscoveRx KINOMEscan
# BIKE = biological target: T21, BIKE (Homo sapiens, UniProt Q9NSY1); assay: KinomeScan; type: binding; details: read-out: % control
# T21 construct: purchased DiscoveRx KINOMEscan
# KIT(L576P) = biological target: T22, KIT(L576P) (Homo sapiens, UniProt P10721, L576P); assay: KinomeScan; type: binding; details: read-out: % control
# T22 construct: purchased DiscoveRx KINOMEscan
# FLT3-autoinhibited = biological target: T23, FLT3-autoinhibited (Homo sapiens, UniProt P36888); assay: KinomeScan; type: binding; details: read-out: % control
# T23 construct: purchased DiscoveRx KINOMEscan
# [5] = biological target: T24, RSK3(Kin.Dom.2-C-terminal) (Homo sapiens, UniProt Q15349); assay: KinomeScan; type: binding; details: read-out: % control
# T24 construct: RSK3(Kin.Dom.2-C-terminal); purchased DiscoveRx KINOMEscan
# HUNK = biological target: T25, HUNK (Homo sapiens, UniProt P57058); assay: KinomeScan; type: binding; details: read-out: % control
# T25 construct: purchased DiscoveRx KINOMEscan
# HPK1 = biological target: T26, HPK1 (Homo sapiens, UniProt Q92918); assay: KinomeScan; type: binding; details: read-out: % control
# T26 construct: purchased DiscoveRx KINOMEscan
# SIK = biological target: T27, SIK (Homo sapiens, UniProt P57059); assay: KinomeScan; type: binding; details: read-out: % control
# T27 construct: purchased DiscoveRx KINOMEscan
# RIPK4 = biological target: T28, RIPK4 (Homo sapiens, UniProt P57078); assay: KinomeScan; type: binding; details: read-out: % control
# T28 construct: purchased DiscoveRx KINOMEscan
# MTOR = biological target: T29, MTOR (Homo sapiens, UniProt P42345); assay: KinomeScan; type: binding; details: read-out: % control
# T29 construct: purchased DiscoveRx KINOMEscan
# [6] = test system: BaF3-TEL-EGFR-T790M-C797S; assay: Anti-proliferation, BaF3 isogenic cell lines (CellTiter-Glo); type: cell-based; details: Mus musculus, 72 hours, triplet testing
# BaF3-TEL-EGFR-L858R = assay: as above; type: cell-based; details: Mus musculus, 72 hours, triplet testing
# CLK1 = biological target: T30, CLK1 (Homo sapiens, UniProt P49759); assay: KinomeScan; type: binding; details: read-out: % control
# T30 construct: purchased DiscoveRx KINOMEscan
# T1 sequence (Q8TD19 whole entry): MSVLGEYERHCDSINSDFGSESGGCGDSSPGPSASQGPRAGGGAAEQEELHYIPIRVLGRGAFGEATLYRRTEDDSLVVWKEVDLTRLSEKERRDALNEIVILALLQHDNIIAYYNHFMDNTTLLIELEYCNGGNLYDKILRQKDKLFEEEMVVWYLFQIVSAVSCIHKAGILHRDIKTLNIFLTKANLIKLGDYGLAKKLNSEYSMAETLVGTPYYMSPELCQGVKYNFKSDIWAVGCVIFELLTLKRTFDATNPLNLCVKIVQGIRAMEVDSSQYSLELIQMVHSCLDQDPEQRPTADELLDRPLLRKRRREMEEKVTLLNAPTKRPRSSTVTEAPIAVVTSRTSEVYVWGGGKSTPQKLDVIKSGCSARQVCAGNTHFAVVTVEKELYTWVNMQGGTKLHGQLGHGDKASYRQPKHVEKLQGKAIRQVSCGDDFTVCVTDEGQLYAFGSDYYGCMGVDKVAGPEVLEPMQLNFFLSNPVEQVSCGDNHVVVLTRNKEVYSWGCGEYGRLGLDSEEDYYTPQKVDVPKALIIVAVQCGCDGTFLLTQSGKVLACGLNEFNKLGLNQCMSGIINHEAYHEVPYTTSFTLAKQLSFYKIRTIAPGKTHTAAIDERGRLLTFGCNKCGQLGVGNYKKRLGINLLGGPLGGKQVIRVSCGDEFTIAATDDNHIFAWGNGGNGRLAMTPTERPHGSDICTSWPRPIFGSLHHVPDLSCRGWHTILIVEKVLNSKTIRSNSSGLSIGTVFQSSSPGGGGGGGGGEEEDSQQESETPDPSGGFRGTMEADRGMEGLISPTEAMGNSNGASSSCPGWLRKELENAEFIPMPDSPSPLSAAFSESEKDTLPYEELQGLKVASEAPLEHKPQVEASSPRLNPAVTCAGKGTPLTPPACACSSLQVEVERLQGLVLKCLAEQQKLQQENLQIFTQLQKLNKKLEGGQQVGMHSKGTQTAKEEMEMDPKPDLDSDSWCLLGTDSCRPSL
# T10 sequence (P61075 whole entry): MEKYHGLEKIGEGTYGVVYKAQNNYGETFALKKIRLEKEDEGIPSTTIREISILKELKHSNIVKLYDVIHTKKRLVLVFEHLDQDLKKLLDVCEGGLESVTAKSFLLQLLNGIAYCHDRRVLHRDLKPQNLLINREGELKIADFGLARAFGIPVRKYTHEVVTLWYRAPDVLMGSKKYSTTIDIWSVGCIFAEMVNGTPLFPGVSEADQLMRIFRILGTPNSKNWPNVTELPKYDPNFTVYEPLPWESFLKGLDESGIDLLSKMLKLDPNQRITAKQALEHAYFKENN
# T2 sequence (Q6ZN16 whole entry): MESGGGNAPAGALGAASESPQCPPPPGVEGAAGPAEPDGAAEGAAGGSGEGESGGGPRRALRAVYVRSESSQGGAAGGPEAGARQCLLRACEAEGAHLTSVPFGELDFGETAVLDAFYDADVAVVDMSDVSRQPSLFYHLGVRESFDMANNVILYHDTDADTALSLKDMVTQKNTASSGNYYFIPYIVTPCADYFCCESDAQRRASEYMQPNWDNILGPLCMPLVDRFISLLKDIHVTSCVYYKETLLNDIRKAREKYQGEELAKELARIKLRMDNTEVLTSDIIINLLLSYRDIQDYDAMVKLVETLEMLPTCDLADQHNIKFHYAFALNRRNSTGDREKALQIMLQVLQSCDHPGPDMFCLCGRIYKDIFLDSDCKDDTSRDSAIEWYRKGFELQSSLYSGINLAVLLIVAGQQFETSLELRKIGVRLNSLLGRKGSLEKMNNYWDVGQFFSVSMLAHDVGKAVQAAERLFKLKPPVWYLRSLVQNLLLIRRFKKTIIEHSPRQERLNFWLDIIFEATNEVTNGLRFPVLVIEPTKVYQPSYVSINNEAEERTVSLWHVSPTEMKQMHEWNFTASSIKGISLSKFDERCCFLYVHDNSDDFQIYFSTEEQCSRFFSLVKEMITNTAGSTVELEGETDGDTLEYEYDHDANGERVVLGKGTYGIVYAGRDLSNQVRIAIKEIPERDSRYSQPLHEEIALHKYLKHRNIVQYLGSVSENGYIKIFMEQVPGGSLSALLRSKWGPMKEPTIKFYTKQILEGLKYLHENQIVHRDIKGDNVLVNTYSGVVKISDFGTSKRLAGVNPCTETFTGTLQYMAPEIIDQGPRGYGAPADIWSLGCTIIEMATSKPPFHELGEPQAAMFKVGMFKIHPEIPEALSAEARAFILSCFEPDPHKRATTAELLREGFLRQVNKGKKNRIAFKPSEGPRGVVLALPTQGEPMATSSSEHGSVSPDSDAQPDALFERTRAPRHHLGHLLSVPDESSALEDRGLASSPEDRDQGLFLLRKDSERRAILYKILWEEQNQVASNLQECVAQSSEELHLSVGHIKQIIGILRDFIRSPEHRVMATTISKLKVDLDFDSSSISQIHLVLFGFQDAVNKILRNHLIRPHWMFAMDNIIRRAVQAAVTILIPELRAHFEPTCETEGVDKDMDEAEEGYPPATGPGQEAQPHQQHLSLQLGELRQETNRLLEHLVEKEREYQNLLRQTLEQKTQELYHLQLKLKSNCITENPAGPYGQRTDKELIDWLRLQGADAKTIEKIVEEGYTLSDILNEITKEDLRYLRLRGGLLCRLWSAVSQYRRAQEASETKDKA
# T16 sequence (Q14289 whole entry): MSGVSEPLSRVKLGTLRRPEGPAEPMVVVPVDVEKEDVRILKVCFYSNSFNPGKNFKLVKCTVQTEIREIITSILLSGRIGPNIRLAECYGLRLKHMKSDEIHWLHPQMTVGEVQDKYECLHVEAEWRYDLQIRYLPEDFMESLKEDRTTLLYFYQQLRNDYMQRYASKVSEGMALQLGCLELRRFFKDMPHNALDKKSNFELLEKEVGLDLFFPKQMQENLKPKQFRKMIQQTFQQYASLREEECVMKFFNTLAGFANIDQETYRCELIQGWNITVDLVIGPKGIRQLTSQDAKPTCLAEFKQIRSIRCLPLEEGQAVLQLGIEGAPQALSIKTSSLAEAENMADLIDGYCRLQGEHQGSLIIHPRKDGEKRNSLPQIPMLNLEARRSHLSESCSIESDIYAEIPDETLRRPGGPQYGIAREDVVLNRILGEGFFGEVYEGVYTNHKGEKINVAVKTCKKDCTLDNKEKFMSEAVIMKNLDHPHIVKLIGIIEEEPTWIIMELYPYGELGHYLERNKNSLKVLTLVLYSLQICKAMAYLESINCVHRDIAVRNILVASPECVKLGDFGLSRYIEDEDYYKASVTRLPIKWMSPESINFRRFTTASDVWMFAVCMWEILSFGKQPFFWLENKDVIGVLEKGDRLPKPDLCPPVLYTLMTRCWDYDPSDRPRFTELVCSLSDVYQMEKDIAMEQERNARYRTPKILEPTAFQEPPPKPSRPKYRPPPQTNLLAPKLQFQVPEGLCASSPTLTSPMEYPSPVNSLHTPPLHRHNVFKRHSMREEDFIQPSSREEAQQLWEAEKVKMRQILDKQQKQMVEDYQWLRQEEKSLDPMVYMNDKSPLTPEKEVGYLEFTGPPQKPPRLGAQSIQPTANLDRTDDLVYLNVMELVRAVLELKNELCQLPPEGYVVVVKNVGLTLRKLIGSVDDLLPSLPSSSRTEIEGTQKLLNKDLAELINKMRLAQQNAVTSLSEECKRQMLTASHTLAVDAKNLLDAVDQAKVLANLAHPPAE
# T6 sequence (Q15418 392-735 limits assumed): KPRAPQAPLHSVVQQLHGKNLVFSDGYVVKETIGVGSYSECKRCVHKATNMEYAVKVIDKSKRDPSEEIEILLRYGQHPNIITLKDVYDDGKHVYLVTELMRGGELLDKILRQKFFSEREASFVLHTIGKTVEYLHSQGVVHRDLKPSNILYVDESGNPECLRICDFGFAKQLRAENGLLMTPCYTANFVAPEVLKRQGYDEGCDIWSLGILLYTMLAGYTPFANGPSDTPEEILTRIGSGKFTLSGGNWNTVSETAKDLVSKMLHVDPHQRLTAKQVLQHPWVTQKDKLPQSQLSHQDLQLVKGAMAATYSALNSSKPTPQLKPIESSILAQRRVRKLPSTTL
# T28 sequence (P57078 whole entry): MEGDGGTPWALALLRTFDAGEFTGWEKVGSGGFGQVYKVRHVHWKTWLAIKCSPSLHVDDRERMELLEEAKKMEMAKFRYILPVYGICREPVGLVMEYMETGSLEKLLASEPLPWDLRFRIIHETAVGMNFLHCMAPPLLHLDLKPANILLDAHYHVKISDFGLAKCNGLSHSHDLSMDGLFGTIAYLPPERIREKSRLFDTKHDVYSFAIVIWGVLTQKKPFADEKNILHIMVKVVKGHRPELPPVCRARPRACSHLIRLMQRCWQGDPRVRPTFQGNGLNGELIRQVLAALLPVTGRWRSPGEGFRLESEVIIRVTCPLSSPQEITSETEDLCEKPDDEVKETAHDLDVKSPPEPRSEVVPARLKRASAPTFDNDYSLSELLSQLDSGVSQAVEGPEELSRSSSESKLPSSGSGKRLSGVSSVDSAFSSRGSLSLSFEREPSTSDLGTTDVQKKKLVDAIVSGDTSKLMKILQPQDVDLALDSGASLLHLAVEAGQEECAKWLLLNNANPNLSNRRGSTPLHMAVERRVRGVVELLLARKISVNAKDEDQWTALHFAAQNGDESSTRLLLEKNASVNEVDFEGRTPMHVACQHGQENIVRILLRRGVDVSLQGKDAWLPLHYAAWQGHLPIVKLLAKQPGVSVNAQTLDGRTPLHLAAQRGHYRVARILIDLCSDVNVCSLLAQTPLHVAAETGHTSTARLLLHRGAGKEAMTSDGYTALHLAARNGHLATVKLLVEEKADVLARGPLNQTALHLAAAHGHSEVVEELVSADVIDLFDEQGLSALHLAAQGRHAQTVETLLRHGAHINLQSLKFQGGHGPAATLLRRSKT
compound,measurement,setting,value
C=CC(=O)N1CCC[C@@H](n2nc(-c3ccc(OCc4cccc(C)n4)c(Cl)c3)c3c(N)ncnc32)C1 [CHMFL-EGFR-26],remaining binding at 1 µM,NEK9,94%
same,remaining binding at 1 µM,MAP3K15,100%
same,remaining binding at 1 µM,ERK8,91%
same,remaining binding at 1 µM,MLK3,100%
same,remaining binding at 1 µM,RIPK2,13%
same,remaining binding at 1 µM,[1],83%
same,fold more potent than AZD9291,H1975 (EGFRL858R/T790M); H1975 GI50,about 170 fold
same,GI50,"H1975 (EGFRL858R/T790M); Homo sapiens, NCI-H1975, H1975 (EGFRL858R/T790M), 72 hours, triplet testing",< 0.3 nM
same,remaining binding at 1 µM,[2],100%
same,remaining binding at 1 µM,SGK,100%
same,cell cycle progression,"[3]; H1975, HCC827, PC9 and H3255 (EGFR mutants), 24-hour",dramatically blocked cell cycle at G0/G1 phase
same,cell cycle progression,"[3]; wild-type EGFR lines A549 and H1355, up to 3 μM, 72-hour",did not cause cell cycle arrest
same,remaining binding at 1 µM,MYLK4,100%
same,remaining binding at 1 µM,PFPK5(P.falciparum),100%
same,remaining binding at 1 µM,WNK3,100%
same,remaining binding at 1 µM,NIK,100%
same,remaining binding at 1 µM,[4],99%
same,remaining binding at 1 µM,ICK,90%
same,remaining binding at 1 µM,FLT3(D835Y),97%
same,remaining binding at 1 µM,PYK2,55%
same,remaining binding at 1 µM,MEK5,0.1%
same,remaining binding at 1 µM,STK35,23%
same,remaining binding at 1 µM,FLT3(R834Q),100%
same,remaining binding at 1 µM,SBK1,100%
same,remaining binding at 1 µM,BIKE,96%
same,remaining binding at 1 µM,KIT(L576P),91%
same,remaining binding at 1 µM,FLT3-autoinhibited,99%
same,remaining binding at 1 µM,[5],85%
same,remaining binding at 1 µM,HUNK,72%
same,remaining binding at 1 µM,HPK1,100%
same,remaining binding at 1 µM,SIK,69%
same,remaining binding at 1 µM,RIPK4,96%
same,remaining binding at 1 µM,MTOR,100%
same,GI50,[6],3700 nM
same,GI50,BaF3-TEL-EGFR-L858R,< 0.3 nM
same,remaining binding at 1 µM,CLK1,94%
